Legend:
isolated rat adipocytes = experiment: Hexose transport (2-deoxyglucose uptake) in isolated rat adipocytes; assay type: cell-based; parameters: stimulation of 2-deoxyglucose uptake, agent alone: dose or concentration left out as unconfirmed; settings: for glucose transport (2-DG uptake): 45 min preincubation of fat cells with increasing concentrations; for stimulation of 2-deoxyglucose uptake, agent alone: benzylamine or orthovanadate alone, 10-min uptake
Experimental: Adipocyte isolation. […] Adipose cells isolated in such a way were used in subsequent studies.
Hexose transport. After a preincubation period of 45 min at 37° C. in vials containing 400 μl of cell suspension in KRBH with the tested products, [^3H]-2-deoxyglucose was added at a final concentration of 0.1 mM (approx. 1,300,000 d.p.m./vial). […] After centrifugation, the fat cells (upper part of the tubes) were placed in scintillation vials and the incorporated radioactivity was counted.

GLUT4 = test system: GLUT4; parameters: increase in the abundance of GLUT4 in plasma membrane preparations / abundance of GLUT4 in plasma membranes, agent alone: dose or concentration left out as unconfirmed; settings: for abundance of GLUT4 in plasma membranes, agent alone: benzylamine or orthovanadate alone; for amount of GLUT4 protein in the plasma membrane (PM): n=3, orthovanadate 0.1 mM
Experimental: To verify whether the stimulation of glucose transport in rat adipocytes may be explained by a translocation of the insulin-sensitive glucose transporters from an internal site to the plasma membrane, as it is known for insulin, the amount of GLUT4 protein was determined in plasma membrane (PM) and low density microsome (LDM) fractions.

[1] = test system: streptozotocin-induced diabetic rats; experiment: Chronic administration in streptozotocin-induced diabetic rats; assay type: in vivo, rat; settings: for food and water consumption / weight of epididymal adipose tissue (adiposity): chronic treatment of diabetic rats
From the text: A group of animals was also subjected to daily i.p. injection of vanadate (50 μmol/kg body wt) for two weeks.
In other studies, rats were daily injected intraperitoneally with 25 μmol/kg vanadate for the first week and with 50 μmol/kg for the second week.

[2] = 1 mM H2O2, preincubation 45 min, n=23
[3] = vanadate i.p. 25 μmol/kg first week and 50 μmol/kg second week, benzylamine 84 μmol/kg, FIG. 6, FIG. 7

OO [H2O2, hydrogen peroxide] was tested, and the “effect relative to the maximal insulin effect” value (isolated rat adipocytes; [2]) was 46%, the “factor multiplying basal hexose transport” value (isolated rat adipocytes; [2]) was 5.0±0.8 fold and the “glucose transport (2-DG uptake)” value (isolated rat adipocytes; 5-min 2-DG uptake, FIG. 1) was “dose-dependently stimulated”.
For NCc1ccccc1 [benzylamine], the “stimulation of 2-deoxyglucose uptake, agent alone” value (isolated rat adipocytes; FIG. 3) was “no stimulatory effect”, the “abundance of GLUT4 in plasma membranes, agent alone” value (GLUT4; 45 minutes incubation) was “did not alter” and the “food and water consumption” value [1] was “not detected”. The “weight of epididymal adipose tissue (adiposity)” value [1] was “not detected” and the glycemia [1, 3] was “remained hyperglycemic”.
CNC[C@H](O)c1cccc(O)c1 [phenylephrine] was tested, and the “glucose transport (2-DG uptake)” value (isolated rat adipocytes; 5-min 2-DG uptake, FIG. 1) was “not activated”.
With NNC(N)=O [semicarbazide] the “effect on glucose transport stimulated by 1 mM hydrogen peroxide plus 0.1 mM orthovanadate” value (isolated rat adipocytes) was “unaffected”, the inhibition at 100 µM (isolated rat adipocytes; Rattus norvegicus, Adipocyte, read-out: inhibition of the glucose transport promoted by 1 mM tyramine plus orthovanadate) was 59 ± 7% and the “effect on stimulation of 2-deoxyglucose uptake by benzylamine and orthovanadate” value (isolated rat adipocytes; semicarbazide (1 mM), FIG. 3) was “abolished”.
NCCc1c[nH]c2ccc(O)cc12 [serotonin] was tested, and the “glucose transport (2-DG uptake)” value (isolated rat adipocytes; 5-min 2-DG uptake, FIG. 1) was “not activated”.
For NCCc1ccc(O)cc1 [tyramine], the “glucose transport (2-DG uptake)” value (isolated rat adipocytes; 5-min 2-DG uptake, FIG. 1) was “not activated” and the “synergism on glucose transport with low, ineffective doses of insulin (10 pM) or hydrogen peroxide (0.01 mM)” value (isolated rat adipocytes; not shown) was “no synergism”.
For “insulin: hormone used as positive control for glucose transport and GLUT4 translocation”, the “increase of basal 2-DG uptake” value (isolated rat adipocytes; insulin, 45 min preincubation, 5-min 2-DG uptake, FIG. 1) was “twelve-fold”, the “GLUT4 abundance in light microsomes” value (GLUT4) was “reduction” and the “increase in the abundance of GLUT4 in plasma membrane preparations” value (GLUT4; 45 minutes incubation) was 3.3 fold. For the same compound, the “content of β1-integrin, a constitutive PM protein” value (GLUT4; Example 2, plasma membrane fraction) was “without any significant change”, the “plasma membrane marker β1-integrin” value (GLUT4; Example 4, 45 minutes incubation) was “remained unaltered” and the “decrease of basal GLUT4 content of LDM” value (GLUT4; Western blot, low density microsomes) was 29%. For the same compound, the “amount of GLUT4 protein in the plasma membrane (PM)” value (GLUT4; Western blot) was 252±43%.
For sodium orthovanadate, the “stimulation of glucose transport as % of that of 100 nM insulin” value (isolated rat adipocytes; 1 mM tyramine, 0.1 mM orthovanadate, 100 nM insulin, n=40) was 5±1%, the “stimulation of 2-deoxyglucose uptake, agent alone” value (isolated rat adipocytes; FIG. 3) was “did not stimulate” and the “effect on basal or insulin-stimulated glucose transport” value (isolated rat adipocytes; orthovanadate alone 0.1 mM, FIG. 2) was “did not affect”. For the same compound, the “abundance of GLUT4 in plasma membranes, agent alone” value (GLUT4; 45 minutes incubation) was “did not alter”, the “amount of GLUT4 protein in the plasma membrane (PM)” value (GLUT4; Western blot) was 103±8% and the “food and water consumption” value [1] was “not detected”. For the same compound, the “weight of epididymal adipose tissue (adiposity)” value [1] was “not detected”, the glycemia ([1]; vanadate 50 μmol/kg daily i.p. for two weeks, benzylamine 84 μmol/kg/day by osmotic minipumps, FIG. 5) was “moderate reduction” and the glycemia [1, 3] was “remained hyperglycemic”.
